Measured values reported in US6632621B1, “G protein-coupled receptor-like receptors and modulators thereof” (priority 1999, dated 2003).
Like-named read-outs stand apart in the source and are kept apart here. Where a SMILES comes first, the peptide text is derived from it. Where no end group is shown, it is not given here. [ ]: non-standard residue; d: D form. pGlu = O=C1CC[C@@H](C(=O)O)N1

Key:
Assay type in all cases: biochemical, C. elegans
CEGPCR16 receptor = biological target: T1, CEGPCR16 receptor (Caenorhabditis elegans, UniProt Q9XXU4); experiment: [35S]GTPγS binding assay, CEGPCR16 expressed in CHO cells
T1 sequence (Q9XXU4 1-365): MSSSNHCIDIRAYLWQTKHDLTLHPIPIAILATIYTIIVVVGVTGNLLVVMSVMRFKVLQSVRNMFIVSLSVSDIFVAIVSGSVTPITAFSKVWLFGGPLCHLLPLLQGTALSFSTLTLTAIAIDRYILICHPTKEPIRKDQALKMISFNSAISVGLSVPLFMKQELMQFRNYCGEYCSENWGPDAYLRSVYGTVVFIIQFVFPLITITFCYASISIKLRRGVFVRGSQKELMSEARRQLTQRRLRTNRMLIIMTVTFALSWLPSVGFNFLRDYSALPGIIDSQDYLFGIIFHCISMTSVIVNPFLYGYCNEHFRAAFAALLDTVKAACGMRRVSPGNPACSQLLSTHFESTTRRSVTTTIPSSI
Procedure: (§1) Recombinant pCR3.1 clones encoding invertebrate GPCR-like receptors were transformed into wild-type CHO-K1 cells and functional expression was achieved using a temperature-shift incubation protocol. The CHO-K1 cells were cultured at 37° C. in a humidified atmosphere of 5% CO2 in air in DMEM medium supplemented with 10% heat-inactivated fetal bovine serum (i.e., FBS), 10 μg/ml gentamicin, and 0.1 mM nonessential amino acids to give complete DMEM medium. Additionally, for incubations at temperatures lower than 37° C., the medium was fortified with 10 mM HEPES (pH 7.4). Cells were transfected with recombinant pCR3.1 clones containing GPCR-like receptor DNAs, using LipofectAMINE PLUS™, essentially according to the manufacturer's instructions. […] In separate plastic tubes, PLUS (20 μl/plate; Life Technologies) was added to 0.75 ml/plate of recombinant plasmid DNA in OptiMEM (5 μg/plate; Gibco/BRL—Life Technologies), mixed and incubated at room temperature for 15 minutes. Separately, LipofectAMINE (30 μl/plate) was mixed with 0.75 ml OptiMEM and added to the pre-complexed DNA/PLUS mixture and incubated at room temperature for 15 minutes. The culture medium was then replaced with serum-free transfection medium (DMEM, 5 ml/plate). The DNA-PLUS-LipofectAMINE complex was then added to the plates (1.5 ml/plate) and mixed gently into the medium, followed by a 3 hour incubation at 37° C. in 5% CO2. At this time, the medium was supplemented with complete DMEM medium containing 20% FBS (6.5 ml/plate) and incubation was continued at 37° C. in 5% CO2. After a total of 24 hours at 37° C. in 5% CO2, the medium was replaced with complete DMEM medium fortified with 10 mM HEPES (10 ml/plate) and the cells were moved to an incubator maintained at 28-30° C. in a humidified atmosphere of 5% CO2 in air. The incubation continued for an additional 24 hours, typically at the lower temperature indicated above. A plasmid encoding Green Fluorescent Protein (i.e., GFP, 4 μg/plate) was used for transient GFP expression in CHO-K1 cells to estimate the transfection yields under the same conditions as used for GPCR-like receptor polynucleotides.
(§2) To assess expression, membranes were prepared from transfected CHO-K1 cells. Transfected cells were washed once with ice-cold Dulbecco's phosphate-buffered saline (i.e., PBS), 5 ml per 10 cm plate, and the cells were scraped into 5 ml of the same buffer. Cell suspensions from multiple plates were combined and centrifuged at 500×g for 10 minutes at 4° C. The cell pellet was reconstituted in ice-cold TEE (25 mM Tris, pH 7.4, 5 mM EGTA, 5 mM EDTA). Convenient aliquots were snap-frozen in liquid nitrogen and stored at −70° C. After thawing, the cells were homogenized and centrifuged at 500×g for 5 minutes at 4° C. to pellet nuclei and unbroken cells. Tile supernatant was centrifuged at 47,000×g for 30 minutes at 4° C. The membrane pellet was washed once with TEE, resuspended in 20 mM HEPES, pH 7.4, 100 mM NaCl, 10 mM MgCl2, 1 mM EDTA (assay buffer), distributed into aliquots of 0.5-1.0 ml, and frozen in liquid nitrogen. Membrane aliquots were stored at −70° C. Membrane protein concentration was determined using the BCA Protein Assay Reagent from Pierce (Rockford, Ill.), with bovine serum albumin (i.e., BSA) as a standard.
(§3) Aliquots of cell membranes prepared as described above and stored at −70° C. were thawed, homogenized, and diluted into buffer containing 20 mM HEPES, pH 7.4, 10 mM MgCl2, 1 mM EDTA, and 100 mM NaCl at a concentration of 10-50 μg/ml. Reaction mixtures were prepared in 96-well polypropylene plate, Nunc. Twenty microliters of a 10× putative modulator compound (including but not limited to potential peptide ligands) solution or a water control (20 μl), 18.2 µM GDP (0.11 ml, 10 μM final concentration), and a membrane preparation were mixed and placed on ice. The modulator/ligand-GDP-membrane mixtures were incubated for 20 minutes at room temperature on a shaking platform and then placed on ice.

CEGPCR5 = biological target: T2, CEGPCR5 (Caenorhabditis elegans, UniProt Q18179); experiment: [35S]GTPγS binding assay, CEGPCR5 expressed in CHO cells
T2 sequence (Q18179 1-402): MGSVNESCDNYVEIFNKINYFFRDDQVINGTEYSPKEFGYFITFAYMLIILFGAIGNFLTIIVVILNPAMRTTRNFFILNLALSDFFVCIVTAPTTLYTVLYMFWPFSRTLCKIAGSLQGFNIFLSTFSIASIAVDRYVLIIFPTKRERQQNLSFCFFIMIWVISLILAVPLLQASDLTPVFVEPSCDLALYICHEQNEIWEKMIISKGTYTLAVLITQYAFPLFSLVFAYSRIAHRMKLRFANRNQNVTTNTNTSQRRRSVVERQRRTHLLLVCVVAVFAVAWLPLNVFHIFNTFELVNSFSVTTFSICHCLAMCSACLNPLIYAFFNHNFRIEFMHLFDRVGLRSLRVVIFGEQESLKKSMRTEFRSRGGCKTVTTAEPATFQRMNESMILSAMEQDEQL
Procedure: as §1, §2, §3

CEGPCR12h receptor = biological target: T3, CEGPCR12h receptor (Caenorhabditis elegans, UniProt Q20275); experiment: [35S]GTPγS binding assay, CEGPCR12h expressed in CHO cells; conditions: Table 11; for activity at single concentration: peptides tested at 5 μM; for EC50: one range for the group, results apply to all CEGPCR12 isoforms
T3 sequence (Q20275 1-402): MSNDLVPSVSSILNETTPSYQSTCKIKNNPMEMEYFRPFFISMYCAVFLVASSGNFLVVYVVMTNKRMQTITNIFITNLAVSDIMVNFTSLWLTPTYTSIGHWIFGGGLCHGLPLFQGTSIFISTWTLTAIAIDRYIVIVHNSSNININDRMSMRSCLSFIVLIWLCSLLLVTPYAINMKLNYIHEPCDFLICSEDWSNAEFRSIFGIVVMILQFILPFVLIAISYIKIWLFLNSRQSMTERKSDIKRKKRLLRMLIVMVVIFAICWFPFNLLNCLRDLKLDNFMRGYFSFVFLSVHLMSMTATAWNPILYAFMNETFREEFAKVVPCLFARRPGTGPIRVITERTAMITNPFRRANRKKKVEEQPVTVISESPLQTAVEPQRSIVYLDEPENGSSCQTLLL
Procedure: as §1, §2, §3

[1] = Table 10, one range for the group of peptides, read-out: EC50 range
[2] = EC50 range, Table 9, one range for the group of peptides

Compound | EC50 (CEGPCR16 receptor; [1]) [µM] | activity at single concentration (CEGPCR12h receptor) | EC50 (CEGPCR5) [µM] | further results
SAEPFGTMRF-NH2 [SAEPFGTMRF-NH2] | 0.06 to 0.3 |  |  | 
ARGPQLRLRF-NH2 [ARGPQLRLRF-NH2] |  |  |  | EC50 (CEGPCR5; [2]): 1 to 8 µM
AVPGVLRF-NH2 [AVPGVLRF-NH2] | 0.7 to 4.6 | active at |  | 
SVPGVLRF-NH2 [SVPGVLRF-NH2] | 0.06 to 0.3 | active at | 0.08 to 0.8 | EC50 (CEGPCR16 receptor; read-out: EC50): 0.064 µM
FDDYGHLRF-NH2 [FDDYGHLRF-NH2] |  |  |  | EC50 (CEGPCR12h receptor; read-out: EC50 range): 0.3 to 0.5 µM
KHEYLRF-NH2 [KHEYLRF-NH2] |  |  | 1 to 8 | 
DVPGVLRF-NH2 [DVPGVLRF-NH2] | 0.7 to 4.6 | active at |  | 
SEVPGVLRF-NH2 [SEVPGVLRF-NH2] | 0.7 to 4.6 |  |  | 
EIVFHQISPIFFRF-NH2 [EIVFHQISPIFFRF-NH2] |  |  | 1 to 8 | 
SADDSAPFGTMRF-NH2 [SADDSAPFGTMRF-NH2] | 0.06 to 0.3 |  |  | 
KPNFLRF-NH2 [KPNFLRF-NH2] |  |  | 1 to 8 | 
TNRNFLRF-NH2 [TNRNFLRF-NH2] |  |  |  | EC50 (CEGPCR5; [2]): 0.08 to 0.8 µM
CC(C)C[C@H](NC(=O)[C@H](Cc1ccccc1)NC(=O)[C@@H](NC(=O)[C@H](Cc1c[nH]cn1)NC(=O)[C@H](CC(=O)O)NC(=O)[C@@H](NC(=O)[C@H](CC(=O)O)NC(=O)[C@@H]1CCC(=O)N1)C(C)C)C(C)C)C(=O)N[C@@H](CCCNC(=N)N)C(=O)N[C@@H](Cc1ccccc1)C(N)=O [pQDVDHVFLRF-NH2] ([pGlu]DVDHVFLRF-NH2) |  |  |  | EC50 (CEGPCR12h receptor; EC50 range): 1.5 to 3 µM
KSVPGVLRF-NH2 [KSVPGVLRF-NH2] | 0.7 to 4.6 | active at | 1 to 8 | 
AGPRFIRF-NH2 [AGPRFIRF-NH2] |  |  | 1 to 8 | 
GDVPGVLRF-NH2 [GDVPGVLRF-NH2] | 0.7 to 4.6 | active at |  | 
GMPGVLRF-NH2 [GMPGVLRF-NH2] | 0.06 to 0.3 | active at | 1 to 8 | 
AGAKFIRF-NH2 [AGAKFIRF-NH2] |  |  | 1 to 8 | 
